From patent publication US9464064B2, “HCV helicase inhibitors and methods of use thereof” (University of Kansas, priority 2011, dated 2016)

Biological target: T1, HCV NS3 helicase NS3h_1b(con1) (Hepatitis C virus genotype 1b, UniProt Q9WMX2)
T1 construct: truncated C-terminally His-tagged NS3 proteins lacking the N-terminal protease, called NS3h; His-tag (C); made in house
Assay: MBHA screen of NCI mechanistic set library at 20 μM (percent inhibition, compound interference)
Assay type: biochemical
Details: compounds at 20 μM; for Inh. (%) (Inhibition): calculated from Equation 1
Method in brief: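 Molecular beacon-based DNA unwinding assay; compounds screened at 20 μM in triplicate, with DMSO-only negative and 500 nM dT20 positive controls. Fluorescence (ex 643/em 670 nm) was read before and 30 min after adding ATP to 1 mM. Percent inhibition came from the change relative to DMSO controls; interference from pre-ATP fluorescence versus DMSO controls.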

[1] = MBHA with DNA substrate, assay interference calculated with Equation 2
[2] = assay interference calculated with Equation 2 (fluorescence vs DMSO-only controls before ATP)

T1 sequence (Q9WMX2 1192-1657): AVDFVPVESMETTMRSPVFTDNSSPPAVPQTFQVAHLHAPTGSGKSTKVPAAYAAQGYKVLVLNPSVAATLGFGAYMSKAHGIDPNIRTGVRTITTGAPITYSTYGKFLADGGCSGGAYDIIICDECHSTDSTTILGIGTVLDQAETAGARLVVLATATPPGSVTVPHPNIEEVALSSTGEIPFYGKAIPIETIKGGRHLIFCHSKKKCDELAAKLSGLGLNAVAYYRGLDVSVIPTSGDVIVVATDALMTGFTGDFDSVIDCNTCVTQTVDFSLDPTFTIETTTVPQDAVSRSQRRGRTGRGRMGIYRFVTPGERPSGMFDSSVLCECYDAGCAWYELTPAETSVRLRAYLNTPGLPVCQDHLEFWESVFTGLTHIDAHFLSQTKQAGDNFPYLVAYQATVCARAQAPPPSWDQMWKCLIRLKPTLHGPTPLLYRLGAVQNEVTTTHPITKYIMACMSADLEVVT

Row | SMILES | Int.* (Ratio) (Interference) [1] | Inh. (%) (Inhibition) (MBHA with DNA substrate) | Inh. (%) (Inhibition) (MBHA with a DNA substrate) | Int.* (Ratio) (Interference) [2]
1 | CC1(C)CC(Nc2ccc(Nc3ccccc3)cc2)CC(C)(C)N1 [Compound 632536] | 0.84 Ratio | 20.7% | – | –
2 | Cc1ccc(/C=C2\CNC/C(=C\c3ccc(C)cc3)C2=O)cc1.Cl [Compound 632839] | 0.87 Ratio | 20.4% | – | –
3 | C=CC(=O)N1C/C(=C\c2ccccc2)C(=O)/C(=C/c2ccccc2)C1 [Compound 632841] | 0.81 Ratio | 15.6% | – | –
4 | O=[N+]([O-])c1ccccc1S(=O)(=O)c1ccccc1[N+](=O)[O-] [Compound 633001] | 0.89 Ratio | 23.2% | – | –
5 | O=C(NC(=O)c1c(Cl)nc2sccn12)Nc1ccc(Cl)cc1 [Compound 633209] | – | – | 9.9% | 0.87 Ratio
6 | O=C1C(c2cnc3ccccc3n2)=C(O)c2ccccc21 [Compound 634224] | 1.17 Ratio | 2.7% | – | –
7 | Cc1c(Cl)cccc1NC(=O)CC1Sc2ccccc2NC1=O (stereo not shown) [Compound 634396] | 0.99 Ratio | −17.6% | – | –
8 | CCOC(=O)CCn1ncc(Cl)c(Cl)c1=O [Compound 634471] | 1.06 Ratio | 2.3% | – | –
9 | COC(=O)C1=CC(=O)C(C(=O)Nc2ccc(OC)cc2)C(c2ccccc2)O1 (stereo not shown) [Compound 634473] | 1.01 Ratio | 4.2% | – | –
10 | CCc1cccc(CC)c1NC(=O)C(C#N)C1=C(Cl)C(=O)c2ccccc2C1=O (stereo not shown) [Compound 634503] | – | – | −31.9% | 0.93 Ratio
11 | Cn1c(=O)c2nc3sc4c(n3c2n(C)c1=O)C(=O)c1ccccc1C4=O [Compound 634568] | 0.90 Ratio | −14.8% | – | –
12 | O=C1C=CC(CC(=O)c2ccc3ccccc3c2)O1 (stereo not shown) [Compound 634650] | – | – | −4.4% | 1.12 Ratio
13 | CC(=O)/C(=C\c1cccc([N+](=O)[O-])c1)C(=O)Nc1ccccc1C [Compound 634658] | 0.85 Ratio | 15.7% | – | –
14 | O=S1(=O)OCCOS(=O)(=O)C1Cc1ccccc1 [Compound 634863] | 0.99 Ratio | −18.2% | – | –
15 | [O-][S+]1c2ccccc2N=C(c2cccc3ccccc23)CC1c1cccc2ccccc12 (stereo not shown) [Compound 634926] | 0.92 Ratio | −14.5% | – | –
16 | CC1=C(C(=O)NCc2ccccc2)C(c2ccccc2O)C(C(=O)NCc2ccccc2)=C(C)N1 [Compound 634928] | – | – | 6.8% | 0.97 Ratio
17 | C/C(NNC(=O)c1ccccc1O)=C1\C=Nc2ccccc2S1 [Compound 635121] | 0.92 Ratio | 14.5% | – | –
18 | COC(=O)c1[nH]c(=S)[nH]c(=O)c1-c1ccc(Cl)cc1 [Compound 635140] | 1.04 Ratio | 4.6% | – | –
19 | O=C(c1ccccc1)C1OC12C(=O)Nc1c(Cl)cc(Cl)cc12 (stereo not shown) [Compound 635306] | – | – | −6.8% | 0.96 Ratio

Row | SMILES | Int.* (Ratio) (Interference) [1] | Inh. (%) (Inhibition) (MBHA with DNA substrate) | Inh. (%) (Inhibition) (MBHA with a DNA substrate) | Int.* (Ratio) (Interference) [2]
20 | O=C(c1ccccc1)C(c1ccccc1)C1(O)C(=O)Nc2c(Cl)cc(Cl)cc21 (stereo not shown) [Compound 635312] | 0.93 Ratio | −18.1% | – | –
21 | Cc1c(Cl)ccc2c1NC(=O)C2(O)C(C(=O)c1ccccc1)c1ccccc1 (stereo not shown) [Compound 635321] | 1.01 Ratio | 5.1% | – | –
22 | O=C(CC1(O)C(=O)Nc2c(Cl)cc(Cl)cc21)c1ccc([N+](=O)[O-])cc1 (stereo not shown) [Compound 635326] | 1.11 Ratio | 5.9% | – | –
23 | O=C(CC1(O)C(=O)Nc2c(Cl)cc(Cl)cc21)c1cccc2ccccc12 (stereo not shown) [Compound 635328] | 0.99 Ratio | 2.5% | – | –
24 | CN1CCN(CCSC2Cc3cc(Cl)ccc3Sc3ccccc32)CC1 (stereo not shown) [Compound 635366] | 1.05 Ratio | 25.5% | – | –
25 | Cc1cc(Cl)cc2c1NC(=O)C2(O)C(C(=O)c1ccccc1)c1ccccc1 (stereo not shown) [Compound 635435] | – | – | 6.9% | 0.96 Ratio
26 | O=C(CC1(O)C(=O)Nc2c(Cl)ccc(Cl)c21)c1ccc(Cl)cc1Cl (stereo not shown) [Compound 635436] | 0.89 Ratio | 15.6% | – | –
27 | O=C(CC1(O)C(=O)Nc2c(Cl)ccc(Cl)c21)c1ccc(Cl)cc1 (stereo not shown) [Compound 635437] | 0.92 Ratio | 0.1% | – | –
28 | O=C(CC1(O)C(=O)Nc2c(Cl)cc(Cl)cc21)c1cccc([N+](=O)[O-])c1 (stereo not shown) [Compound 635438] | – | – | −23.8% | 1.02 Ratio
29 | CC(=O)/C(C)=N/NC(=O)c1ccccc1O [Compound 635441] | 0.92 Ratio | 16.7% | – | –
30 | C/C(=N\NC(=S)N(C)C)c1ccccn1.[Cu][Br] [Compound 635448] | 0.93 Ratio | 0.8% | – | –
31 | Cc1c(C(=O)C/C(=N/NC(=O)CC#N)C(N)=O)[n+](=O)c2ccccc2n1[O-] [Compound 635542] | 0.91 Ratio | −12.7% | – | –
32 | Cc1c(C(=O)C/C(=N\O)C(=O)Nc2cc(Cl)c(Cl)cc2Cl)[n+](=O)c2ccccc2n1[O-] [Compound 635544] | – | – | −21.9% | 0.82 Ratio
33 | O=[N+]([O-])c1cc(-c2nc(=S)[nH][nH]2)ccc1O [Compound 635563] | – | – | −6.8% | 0.92 Ratio
34 | Cc1ccccc1OCC(COC(=O)Nc1ccccc1)OC(=O)Nc1ccccc1 (stereo not shown) [Compound 635824] | 0.91 Ratio | 13.5% | – | –
35 | COC(=O)C(=O)C(C(=O)Nc1cccc(C)c1C)C1Sc2ccccc2NC1=O (stereo not shown) [Compound 635833] | 0.93 Ratio | −7.3% | – | –
36 | CC1=NC(C(C)C)C(=O)O1 (stereo not shown) [Compound 635968] | – | – | 9.0% | 0.97 Ratio
37 | CC(C)(C)c1ccc(OC2CCO2)cc1 (stereo not shown) [Compound 635975] | 0.97 Ratio | −2.4% | – | –
38 | CC1CCCC(C(=O)/C(=C/c2cccc(Cl)c2)C(=O)C(=O)O)C1 (stereo not shown) [Compound 636084] | 1.01 Ratio | −8.2% | – | –

Row | SMILES | Int.* (Ratio) (Interference) [1] | Inh. (%) (Inhibition) (MBHA with DNA substrate) | Inh. (%) (Inhibition) (MBHA with a DNA substrate) | Int.* (Ratio) (Interference) [2]
39 | Cc1ccccc1NC(=O)C(=O)C(C#N)c1ccccc1C (stereo not shown) [Compound 636132] | 0.90 Ratio | 4.4% | – | –
40 | O=C(/C=C/c1c(O)ccc2ccccc12)c1cccc(O)c1 [Compound 636786] | – | – | 8.8% | 0.91 Ratio
41 | COc1ccc(C2=Nc3ccccc3SC(C)C2)cc1 (stereo not shown) [Compound 636817] | – | – | −30.3% | 1.07 Ratio
42 | NC(=Nc1nc(-c2ccccn2)cc2ccccc12)c1ccccn1 [Compound 637578] | – | – | 7.9% | 0.97 Ratio
43 | CCOc1ccccc1NC(=O)CC1Sc2ccccc2NC1=O (stereo not shown) [Compound 637680] | 0.91 Ratio | 21.2% | – | –
44 | O=C1C=C(Nc2cccnc2)c2ccccc2C1=O [Compound 637729] | – | – | −3.8% | 0.97 Ratio
45 | O=C1C=C(NCCc2ccccc2)c2ccccc2C1=O [Compound 637731] | – | – | −5.3% | 1.07 Ratio
46 | CC(=O)SC(SC(C)=O)SC(C)=O [Compound 637833] | 0.80 Ratio | −17.2% | – | –
47 | N#CCCN(c1ccc(C=O)cc1)S(=O)(=O)c1ccccc1 [Compound 637914] | 1.01 Ratio | −11.0% | – | –
48 | N#CCCN(CCC#N)c1ccc(/C=C2/N=C(c3cc([N+](=O)[O-])ccc3Cl)OC2=O)cc1 [Compound 637916] | 0.97 Ratio | 1.1% | – | –
49 | CCN(CC)CCNc1ccc2nc(C)n3c4ccc(OC)cc4c(=O)c1c23.Cl [Compound 637993] | 0.77 Ratio | 37.7% | – | –
50 | O=S(=O)(O)c1cc(N=Nc2cc(S(=O)(=O)O)c3cccnc3c2O)ccc1/C=C/c1ccc(N=Nc2cc(S(=O)(=O)O)c3cccnc3c2O)cc1S(=O)(=O)O [Compound 638352] | 0.89 Ratio | 56.2% | – | –
51 | COc1ccc2ccccc2c1C1OC(=O)c2ccccc21 (stereo not shown) [Compound 638504] | 0.90 Ratio | −2.7% | – | –
52 | O=C1/C(=C\c2ccccc2)CN(C(=O)/C=C/c2ccccc2)C/C1=C\c1ccccc1 [Compound 638634] | – | – | −20.4% | 0.86 Ratio
53 | Cl.O=C1/C(=C\c2ccc(Cl)c(Cl)c2)CN(C(=O)CCN2CCOCC2)C/C1=C\c1ccc(Cl)c(Cl)c1 [Compound 638646] | – | – | −3.1% | 0.76 Ratio
54 | CCOC(=O)Nc1nc2ccc(Cn3cccc3)cc2[nH]1 [Compound 639754] | 1.14 Ratio | −18.3% | – | –
55 | Nc1ccccc1C(=O)NC(=O)Nc1ccc(Oc2ncc(Br)cn2)c(Cl)c1 [Compound 639828] | 1.05 Ratio | 23.0% | – | –
56 | CCN(CC)CCN1C(=O)c2c(c3c4cccc(Cl)c4n(C4OC(CO)C(OC)C(O)C4O)c3c3[nH]c4c(Cl)cccc4c23)C1=O (stereo not shown) [Compound 640199] | 0.70 Ratio | 76.4% | – | –
